PubChem BioAssay (NCI)
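Dose response: 5 concentrations. Exposure: 48 h. Format: 96-well plates. Endpoint: linear interpolation; highest concentration if not reached. At the TGI there is no net growth.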

Columns and labels:
Test in all cases: inhibition of tumour cell growth, NCI panel, 48 h
HOP-92 NSCLC = test system: HOP-92 NSCLC
OVCAR-5 ovarian = test system: OVCAR-5 ovarian
UO-31 renal = test system: UO-31 renal
SK-MEL-5 melanoma = test system: SK-MEL-5 melanoma
K-562 leukemia = test system: K-562 leukemia
OVCAR-4 ovarian = test system: OVCAR-4 ovarian
M19-MEL melanoma = test system: M19-MEL melanoma
DMS 114 small cell lung = test system: DMS 114 small cell lung
M14 melanoma = test system: M14 melanoma
SNB-78 CNS = test system: SNB-78 CNS
ACHN renal = test system: ACHN renal
DMS 273 small cell lung = test system: DMS 273 small cell lung
786-0 renal = test system: 786-0 renal
OVCAR-3 ovarian = test system: OVCAR-3 ovarian
SNB-75 CNS = test system: SNB-75 CNS
SF-268 CNS = test system: SF-268 CNS
HCC-2998 colon = test system: HCC-2998 colon
SF-539 CNS = test system: SF-539 CNS
SK-OV-3 ovarian = test system: SK-OV-3 ovarian
EKVX NSCLC = test system: EKVX NSCLC
CCRF-CEM leukemia = test system: CCRF-CEM leukemia
U251 CNS = test system: U251 CNS
DLD-1 colon = test system: DLD-1 colon
A498 renal = test system: A498 renal
TK-10 renal = test system: TK-10 renal
MOLT-4 leukemia = test system: MOLT-4 leukemia
HCT-15 colon = test system: HCT-15 colon
LXFL 529 NSCLC = test system: LXFL 529 NSCLC
COLO 205 colon = test system: COLO 205 colon
MALME-3M melanoma = test system: MALME-3M melanoma
HL-60(TB) leukemia = test system: HL-60(TB) leukemia
HCT-116 colon = test system: HCT-116 colon
NCI-H460 lung = test system: NCI-H460 lung
NCI-H23 lung = test system: NCI-H23 lung
SF-295 CNS = test system: SF-295 CNS
SR leukemia = test system: SR leukemia
SN12C renal = test system: SN12C renal
OVCAR-8 ovarian = test system: OVCAR-8 ovarian
NCI-H522 lung = test system: NCI-H522 lung
LOX IMVI melanoma = test system: LOX IMVI melanoma
A549 NSCLC = test system: A549 NSCLC
SW-620 colon = test system: SW-620 colon
SNB-19 CNS = test system: SNB-19 CNS
NCI-H226 lung = test system: NCI-H226 lung
KM20L2 colon = test system: KM20L2 colon
SK-MEL-28 melanoma = test system: SK-MEL-28 melanoma
KM12 colon = test system: KM12 colon
IGROV1 ovarian = test system: IGROV1 ovarian
XF 498 CNS = test system: XF 498 CNS
SK-MEL-2 melanoma = test system: SK-MEL-2 melanoma
UACC-257 melanoma = test system: UACC-257 melanoma
CAKI-1 renal = test system: CAKI-1 renal
UACC-62 melanoma = test system: UACC-62 melanoma
HOP-62 NSCLC = test system: HOP-62 NSCLC
RXF-631 renal = test system: RXF-631 renal

CCn1c2ccccc2c2c(-c3ccccc3)cc3c(c21)C(=O)N(c1ccccc1)C3=O
TGI (HOP-92 NSCLC): 90.5 µM | TGI (OVCAR-5 ovarian): > 100 µM | TGI (UO-31 renal): > 100 µM | TGI (SK-MEL-5 melanoma): > 100 µM | TGI (K-562 leukemia): > 100 µM | TGI (OVCAR-4 ovarian): > 100 µM | TGI (M19-MEL melanoma): > 100 µM | TGI (DMS 114 small cell lung): > 100 µM | TGI (M14 melanoma): > 100 µM | TGI (SNB-78 CNS): > 100 µM | TGI (ACHN renal): > 100 µM | TGI (DMS 273 small cell lung): > 100 µM | TGI (786-0 renal): > 100 µM | TGI (OVCAR-3 ovarian): > 100 µM | TGI (SNB-75 CNS): > 100 µM | TGI (SF-268 CNS): > 100 µM | TGI (HCC-2998 colon): > 100 µM | TGI (SF-539 CNS): > 100 µM | TGI (SK-OV-3 ovarian): > 100 µM | TGI (EKVX NSCLC): > 100 µM | TGI (CCRF-CEM leukemia): > 100 µM | TGI (U251 CNS): > 100 µM | TGI (DLD-1 colon): > 100 µM | TGI (A498 renal): > 100 µM | TGI (TK-10 renal): > 100 µM | TGI (MOLT-4 leukemia): > 100 µM | TGI (HCT-15 colon): > 100 µM | TGI (LXFL 529 NSCLC): > 100 µM | TGI (COLO 205 colon): > 100 µM | TGI (MALME-3M melanoma): > 100 µM | TGI (HL-60(TB) leukemia): > 100 µM | TGI (HCT-116 colon): > 100 µM | TGI (NCI-H460 lung): > 100 µM | TGI (NCI-H23 lung): > 100 µM | TGI (SF-295 CNS): > 100 µM | TGI (SR leukemia): > 100 µM | TGI (SN12C renal): > 100 µM | TGI (OVCAR-8 ovarian): > 100 µM | TGI (NCI-H522 lung): > 100 µM | TGI (LOX IMVI melanoma): > 100 µM | TGI (A549 NSCLC): > 100 µM | TGI (SW-620 colon): > 100 µM | TGI (SNB-19 CNS): > 100 µM | TGI (NCI-H226 lung): > 100 µM | TGI (KM20L2 colon): > 100 µM | TGI (SK-MEL-28 melanoma): > 100 µM | TGI (KM12 colon): > 100 µM | TGI (IGROV1 ovarian): > 100 µM | TGI (XF 498 CNS): > 100 µM | TGI (SK-MEL-2 melanoma): > 100 µM | TGI (UACC-257 melanoma): > 100 µM | TGI (CAKI-1 renal): > 100 µM | TGI (UACC-62 melanoma): > 100 µM

CC(C)N(C(=O)C12C3C4C1C1C2C3C41C(N)=O)C(C)C (stereo unspecified)
TGI (HOP-92 NSCLC): > 100 µM | TGI (UO-31 renal): > 100 µM | TGI (SK-MEL-5 melanoma): > 100 µM | TGI (K-562 leukemia): > 100 µM | TGI (M19-MEL melanoma): > 100 µM | TGI (DMS 114 small cell lung): > 100 µM | TGI (M14 melanoma): > 100 µM | TGI (SNB-78 CNS): > 100 µM | TGI (ACHN renal): > 100 µM | TGI (DMS 273 small cell lung): > 100 µM | TGI (786-0 renal): > 100 µM | TGI (OVCAR-3 ovarian): > 100 µM | TGI (SF-268 CNS): > 100 µM | TGI (HCC-2998 colon): > 100 µM | TGI (SF-539 CNS): > 100 µM | TGI (SK-OV-3 ovarian): > 100 µM | TGI (EKVX NSCLC): > 100 µM | TGI (CCRF-CEM leukemia): > 100 µM | TGI (U251 CNS): > 100 µM | TGI (A498 renal): > 100 µM | TGI (MOLT-4 leukemia): > 100 µM | TGI (HCT-15 colon): > 100 µM | TGI (LXFL 529 NSCLC): > 100 µM | TGI (COLO 205 colon): > 100 µM | TGI (MALME-3M melanoma): > 100 µM | TGI (SF-295 CNS): > 100 µM | TGI (SR leukemia): > 100 µM | TGI (SN12C renal): > 100 µM | TGI (OVCAR-8 ovarian): > 100 µM | TGI (NCI-H522 lung): > 100 µM | TGI (HOP-62 NSCLC): > 100 µM | TGI (A549 NSCLC): > 100 µM | TGI (SW-620 colon): > 100 µM | TGI (SNB-19 CNS): > 100 µM | TGI (KM20L2 colon): > 100 µM | TGI (IGROV1 ovarian): > 100 µM | TGI (CAKI-1 renal): > 100 µM | TGI (RXF-631 renal): > 100 µM
